For this experiment, the target named is T1, Tyrosine-protein kinase ITK/TSK (Homo sapiens, UniProt Q08881).
T1 sequence (Q08881 whole entry): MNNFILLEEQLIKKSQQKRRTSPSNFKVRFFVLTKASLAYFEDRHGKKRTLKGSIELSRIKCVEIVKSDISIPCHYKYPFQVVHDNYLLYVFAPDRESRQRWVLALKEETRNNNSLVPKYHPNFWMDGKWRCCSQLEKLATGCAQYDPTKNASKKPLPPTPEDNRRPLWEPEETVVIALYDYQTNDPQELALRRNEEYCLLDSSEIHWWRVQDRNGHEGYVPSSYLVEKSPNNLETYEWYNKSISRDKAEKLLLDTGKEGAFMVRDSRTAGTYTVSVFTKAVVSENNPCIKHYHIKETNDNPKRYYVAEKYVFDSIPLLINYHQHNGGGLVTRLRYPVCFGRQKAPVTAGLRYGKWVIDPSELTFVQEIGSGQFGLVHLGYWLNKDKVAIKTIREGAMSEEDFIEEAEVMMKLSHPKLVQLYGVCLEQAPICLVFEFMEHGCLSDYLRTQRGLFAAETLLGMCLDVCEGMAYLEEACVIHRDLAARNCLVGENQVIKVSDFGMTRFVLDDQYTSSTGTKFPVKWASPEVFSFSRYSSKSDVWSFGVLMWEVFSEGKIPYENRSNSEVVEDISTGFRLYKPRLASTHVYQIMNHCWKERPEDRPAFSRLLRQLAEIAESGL
Nature of the experiment: Inhibition of ITK (unknown origin) using Acetyl-EFPIYDFLPAKKK-NH2 peptide as substrate after 1 hr by LC-MS analysis.

SMILES strings stand for the structures.

As for `CC12Cc3[nH]nc(C(=O)Nc4cnn(C(CS(C)(=O)=O)c5cccnc5)c4)c3CC1C2` (stereo unspecified), the Ki was less than 0.1 nM.

Source of the values: ChEMBL document CHEMBL3286251, “Treatment of Immunological or Inflammatory Disorders with ITK Kinase Inhibitors” (ACS Med Chem Lett, 2014).
